We go through ten compounds from patent US7402683B2, “Cinnamic acid amides” (Bayer HealthCare AG, priority 2002, dated 2008).

One test deals with bacteria. Particulars: described in the literature; cited from earlier work.
For test [1], the system named is Staphylococcus aureus 133. Put plainly: Determination of the minimum inhibitory concentration (MIC), liquid dilution test. The class given is cell-based. Particulars: Isosensitest medium, 10^5 organisms per ml, 37° C., 18-24 hours; lowest concentration with no visible bacterial growth. On the procedure:
(§1) Determination of the Minimum Inhibitory Concentration (MIC):
(§2) The MIC is determined in a liquid dilution test. Overnight cultures of the test organisms are diluted to a cell count of 10^5 organisms per ml in Isosensitest medium (Difco, Irvine, USA) and are incubated with dilutions of the test substances (1:2 dilution stages). Exceptions are the tests with S. pneumoniae G9A, which are conducted in BHI broth (Difco) plus 20% bovine serum, and with H. influenzae, which are conducted in BHI broth (Difco) plus 20% bovine serum, 10 μg/ml hemin and 1% Isovitale (Becton Dickinson, N.J., USA).
(§3) The cultures are incubated at 37° C. for 18-24 hours; S. pneumoniae and H. influenzae in the presence of 8-10% CO2.
(§4) The lowest concentration of each substance at which there is no longer any visible bacterial growth is defined as the MIC. The MICs in μmol/1 of some compounds of the invention against a series of test organisms are listed by way of example in the table below.

Test [2] relates to Haemophilus influenzae Spain 7. Described as above. The format is cell-based. Particulars: BHI broth plus 20% bovine serum, 10 μg/ml hemin and 1% Isovitale, 37° C., 18-24 hours, 8-10% CO2. On the procedure: as §1, §2, §3, §4

Bounds are passed on as bounds.

On to `C/C=C/C=C/C=C/C(=O)N[C@@H](CC(=O)N[C@H](C(=O)[C@@H]1C(=O)NC(=O)[C@H]1C)C(C)C)c1ccccc1` [andrimid], for which, in the test with bacteria, the antibacterial activity entry was “having antibacterial activity”.
`C[C@@H]1C(=O)NC(=O)[C@H]1C(=O)[C@@H](NC(=O)C[C@H](NC(=O)/C=C/c1ccc2c(c1)OCO2)c1ccccc1)C(C)(C)C` [Example 2, (2E)-3-(1,3-Benzodioxol-5-yl)-N-{(1S)-3-[((1S)-2,2-dimethyl-1-{[(3R,4S)-4-methyl-2,5-dioxo-3-pyrrolidinyl]carbonyl}propyl)amino]-3-oxo-1-phenylpropyl}-2-propenamide]: the “MIC Staphylococcus aureus 133” value in test [1] is listed as 7.8 μmol/1. The “MIC Haemophilus influenzae Spain 7” value in test [2] is on record as 31.3 μmol/1.
As for `C/C=C/C=C/C(=O)N[C@@H](CC(=O)N[C@H](C(=O)[C@@H]1C(=O)NC(=O)[C@H]1C)C(C)C)c1ccccc1` [moiramide B], in the test on bacteria, the antibacterial activity result is reported as “having antibacterial activity”.
Regarding `CC(C)[C@H](NC(=O)C[C@H](NC(=O)/C=C/c1ccc2c(c1)OCO2)c1ccccc1)C(=O)[C@@H]1C(=O)NC(=O)[C@H]1C` [Example 1, (2E)-3-(1,3-Benzodioxol-5-yl)-N-{(1S)-3-[((1S)-2-methyl-1-{[(3R,4S)-4-methyl-2,5-dioxo-3-pyrrolidinyl]carbonyl}propyl)amino]-3-oxo-1-phenylpropyl}-2-propenamide], the “MIC Staphylococcus aureus 133” value in test [1] was found to be 3.9 μmol/1. Also, the “MIC Haemophilus influenzae Spain 7” value in test [2] was 31.3 μmol/1.
The corresponding values for `C[C@@H]1C(=O)N(N)C(=O)[C@H]1C(=O)[C@@H](NC(=O)C[C@H](NC(=O)/C=C/c1ccc(C#N)cc1)c1ccccc1)C1CCCC1` [Example 34, (2E)-N-((1S)-2-{N-[(1S)-2-((4S,3R)-1-amino-4-methyl-2,5-dioxoazolidin-3-yl)-1-cyclopentyl-2-oxoethyl]carbamoyl}-1-phenylethyl)-3-(4-cyanophenyl)prop-2-enamide] are <1 μmol/1 and 7.8 μmol/1.
In the same order, the values of `CC(C)[C@H](NC(=O)CC(NC(=O)/C=C/c1ccc2c(c1)OCO2)c1ccc2c(c1)OCCO2)C(=O)[C@@H]1C(=O)NC(=O)[C@H]1C` (stereo partly drawn) [Example 5, (2E)-3-(1,3-Benzodioxol-5-yl)-N-{1-(2,3-dihydro-1,4-benzodioxin-6-yl)-3-[((1S)-2-methyl-1-{[(3R,4S)-4-methyl-2,5-dioxo-3-pyrrolidinyl]carbonyl}propyl)amino]-3-oxopropyl}-2-propenamide] are 7.8 μmol/1 and 3.9 μmol/1.
In the same order, the values of `CC(C)[C@H](NC(=O)C[C@H](NC(=O)/C=C/c1ccsc1)c1ccccc1)C(=O)[C@@H]1C(=O)NC(=O)[C@H]1C` [Example 11] are 7.8 μmol/1 and 62.5 μmol/1.
For `C[C@@H]1C(=O)NC(=O)[C@H]1C(=O)[C@@H](NC(=O)C[C@H](NC(=O)/C=C/c1ccc2c(c1)OCO2)c1ccccc1)C1CCCC1` [Example 31, (2E)-3-(2H-Benzo[d]1,3-dioxolan-5-yl)-N-((1S)-2-{N-[(1S)-2-((4S,3R)-4-methyl-2,5-dioxoazolin-3-yl)-1-cyclopentyl-2-oxoethyl]carbamoyl}-1-phenylethyl)prop-2-enamide], the “MIC Staphylococcus aureus 133” value in test [1] is on record as <1 μmol/1. Besides, the “MIC Haemophilus influenzae Spain 7” value in test [2] stood at 31.3 μmol/1.
With `C/C=C/C=C/C=C/C(=O)N[C@@H](CC(=O)N[C@H](C(=O)[C@@]1(O)C(=O)NC(=O)[C@H]1C)C(C)C)c1ccccc1` [moiramide C], the antibacterial activity entry in the test with bacteria was “inactive”.
On to `CC(C)[C@H](NC(=O)CC(NC(=O)/C=C/c1ccc2c(c1)OCO2)c1ccc2ccccc2c1)C(=O)[C@@H]1C(=O)NC(=O)[C@H]1C` (some centres unmarked) [Example 92], for which the “MIC Staphylococcus aureus 133” value in test [1] is listed as <1 μmol/1. For the same compound, the “MIC Haemophilus influenzae Spain 7” value in test [2] came to 15.6 μmol/1.
